Read-outs that look alike come from different tables or passages of the source.
Experiments:
Assay type in all cases: cell-based
[1] = system: Aspergillus niger (A. niger—ATCC 16404); experiment: Synergy test, microtiter plate high resolution MIC assay, mold; settings: for SI (synergy index, Qa/QA+Qb/QB): <1 synergism, 1 additivity, >1 antagonism; for MIC: Aspergillus niger, read-out: MIC of the microbicide acting alone (QA or QB)
Description: (§1) When the sum of Qa/QA and Qb/QB is greater than one, antagonism is indicated. […] The lower the SI, the greater the synergy shown by that particular mixture. The minimum inhibitory concentration (MIC) of a microbicide is the lowest concentration tested under a specific set of conditions that prevents the growth of added microorganisms.
(§2) Synergy tests were conducted using standard microtiter plate assays with media designed for optimal growth of the test microorganism. Minimal salt medium supplemented with 0.2% glucose and 0.1% yeast extract (M9GY medium) was used for testing bacteria; Potato Dextrose Broth (PDB medium) was used for testing yeast and mold. In this method, a wide range of combinations of microbicides was tested by conducting high resolution MIC assays in the presence of various concentrations of MI. High resolution MICs were determined by adding varying amounts of microbicide to one column of a microtitre plate and doing subsequent ten-fold dilutions using an automated liquid handling system to obtain a series of endpoints ranging from 2 ppm to 10,000 ppm active ingredient. […] The bacteria were used at a concentration of about 5×10^6 bacteria per mL and the yeast and mold at 5×10^5 fungi per mL. These microorganisms are representative of natural contaminants in many consumer and industrial applications. […] (yeast and mold) or 30° C. (bacteria).
(§3) In each test, First Component (A) was MI and the Second Component (B) was the other commercial microbicide.

[2] = system: Staphylococcus aureus (S. aureus—ATCC #6538); experiment: Synergy test, microtiter plate high resolution MIC assay, Gram (+) bacteria; settings: for SI (synergy index, Qa/QA+Qb/QB): <1 synergism, 1 additivity, >1 antagonism; for MIC: Staphylococcus aureus
Description: as §1, §2, §3

[3] = system: Pseudomonas aeruginosa (P. aeruginosa—ATCC #9027); experiment: Synergy test, microtiter plate high resolution MIC assay, Gram (−) bacteria; settings: for SI (synergy index, Qa/QA+Qb/QB): <1 synergism, 1 additivity, >1 antagonism; for MIC: Pseudomonas aeruginosa, read-out: MIC of the microbicide acting alone (QA or QB)
Description: as §1, §2, §3

[4] = system: Candida albicans (C. albicans—ATCC 10231); experiment: Synergy test, microtiter plate high resolution MIC assay, yeast; settings: for SI (synergy index, Qa/QA+Qb/QB): <1 synergism, 1 additivity, >1 antagonism; for MIC: Candida albicans, read-out: MIC of the microbicide acting alone (QA or QB)
Description: as §1, §2, §3

[5] = ATCC16404, 168 h, A. niger, 1 week, PDB medium, 25° C.
[6] = ATCC6538, S. aureus, 72 hours, M9GY medium, 30° C., read-out: MIC of the microbicide acting alone (QA or QB)
[7] = ATCC9027, P. aeruginosa, 24 hours, M9GY medium, 30° C.
[8] = ATCC10231, C. albicans, 72 hours, PDB medium, 25° C.
[9] = ATCC6538, 72 h, read-out: MIC of the microbicide acting alone (QA or QB), S. aureus, 72 hours, M9GY medium, 30° C.
[10] = ATCC6538, S. aureus, 24 hours, M9GY medium, 30° C., read-out: MIC of the microbicide acting alone (QA or QB)
[11] = ATCC9027, P. aeruginosa, 48 hours, M9GY medium, 30° C.

| Compound | SI (synergy index, Qa/QA+Qb/QB) ([1]; A. niger, 1 week) | MIC [1, 5] [µg/mL] | SI (synergy index, Qa/QA+Qb/QB) ([2]; S. aureus, 72 hours) | MIC [2, 6] [µg/mL] | SI (synergy index, Qa/QA+Qb/QB) ([3]; P. aeruginosa, 24 hours) | MIC [3, 7] [µg/mL] | SI (synergy index, Qa/QA+Qb/QB) ([4]; C. albicans, 72 hours) | MIC [4, 8] [µg/mL] | SI (synergy index, Qa/QA+Qb/QB) ([3]; P. aeruginosa, 72 hours) | SI (synergy index, Qa/QA+Qb/QB) ([4]; C. albicans, 48 hours) | other results |
| --- | --- | --- | --- | --- | --- | --- | --- | --- | --- | --- | --- |
| N#CCCC(Br)(C#N)CBr (stereo not shown) [1,2-dibromo-2,4-dicyanobutane] | 1.00 | 100 | 1.00 | 1000 | 1.00 | 800 | 1.00 | 500 | – | – | – |
| CC1(C)C(=O)N(CO)C(=O)N1CO [1,3-dimethylol-5,5-dimethylhydantoin] | 1.00 | 3000 | 1.00 | 200 | 1.00 | 300 | 1.00 | 3000 | – | – | – |
| Cn1sccc1=O [2-methyl-3-isothiazolone] | 1.00 | – | 1.00 | – | 1.00 | – | 1.00 | – | 1.00 | 1.00 | SI (synergy index, Qa/QA+Qb/QB) ([1]; A. niger, 72 hours): 1.00; SI (synergy index, Qa/QA+Qb/QB) ([1]; A. niger, 96 hours): 1.00; MIC ([1]; ATCC16404, 72 h): 300 µg/mL; MIC ([1]; ATCC16404, 96 h): 300 µg/mL; MIC ([1]; ATCC16404, 168 h): 300 µg/mL; SI (synergy index, Qa/QA+Qb/QB) ([2]; S. aureus, 24 hours): 1.00; MIC ([2]; ATCC6538, 24 h, read-out: MIC of the microbicide acting alone (QA or QB), S. aureus, 24 hours, M9GY medium, 30° C.): 40 µg/mL; MIC [2, 9]: 60 µg/mL; SI (synergy index, Qa/QA+Qb/QB) ([3]; P. aeruginosa, 48 hours): 1.00; MIC ([3]; ATCC9027, 24 h): 15 µg/mL; MIC ([3]; ATCC9027, 48 h): 20 µg/mL; MIC ([3]; ATCC9027, 72 h): 20 µg/mL; MIC ([4]; ATCC10231, 48 h): 200 µg/mL; MIC ([4]; ATCC10231, 72 h): 200 µg/mL |
| O=C(O)c1ccccc1 [benzoic acid] | 1.00 | – | 1.00 | – | – | – | – | – | 1.00 | 1.00 | MIC ([1]; ATCC16404, 168 h): 10000 µg/mL; MIC [2, 9]: 6000 µg/mL; MIC ([3]; ATCC9027, 72 h): 6000 µg/mL; MIC ([4]; ATCC10231, 48 h): 5000 µg/mL |
| OCc1ccccc1 [benzyl alcohol] | – | – | 1.00 | 8000 | 1.00 | 6000 | – | – | – | 1.00 | SI (synergy index, Qa/QA+Qb/QB) ([1]; A. niger, 72 hours): 1.00; MIC ([1]; ATCC16404, A. niger, 72 hours, PDB medium, 25° C.): 8000 µg/mL; MIC ([4]; ATCC10231, C. albicans, 48 hours, PDB medium, 25° C.): 6000 µg/mL |
| O=C(O)CC(O)(CC(=O)O)C(=O)O [citric acid] | – | 10000 | – | – | – | – | – | 10000 | – | – | MIC [2, 10]: 4000 µg/mL; MIC [3, 11]: 6000 µg/mL |
| CC(C)(C)C(=O)C(Oc1ccc(Cl)cc1)n1ccnc1 (stereo not shown) [climbazole] | – | – | – | – | – | – | 1.00 | 300 | – | – | SI (synergy index, Qa/QA+Qb/QB) ([2]; S. aureus, 24 hours): 1.00; MIC [2, 10]: 2000 µg/mL |
| C/C=C/C=C/C(=O)O [sorbic acid] | – | – | 1.00 | 10000 | – | – | 1.00 | 400 | – | – | SI (synergy index, Qa/QA+Qb/QB) ([1]; A. niger, 96 hours): 1.00; MIC ([1]; ATCC16404, A. niger, 96 hours, PDB medium, 25° C.): 4000 µg/mL; SI (synergy index, Qa/QA+Qb/QB) ([3]; P. aeruginosa, 48 hours): 1.00; MIC [3, 11]: 10000 µg/mL |
| zinc pyrithione | 1.00 | – | 1.00 | – | – | – | – | – | 1.00 | 1.00 | MIC of the microbicide acting alone (QA or QB) ([1]; A. niger, 1 week, PDB medium, 25° C.): 80 ppm; MIC of the microbicide acting alone (QA or QB) ([2]; S. aureus, 72 hours, M9GY medium, 30° C.): 20 ppm; MIC of the microbicide acting alone (QA or QB) ([3]; P. aeruginosa, 72 hours, M9GY medium, 30° C.): 200 ppm; MIC of the microbicide acting alone (QA or QB) ([4]; C. albicans, 48 hours, PDB medium, 25° C.): 80 ppm |

Source: US9034905B2, “Synergistic microbicidal combinations” (Rohm and Haas Company, priority 2003, dated 2015)
